Assay results reported in patent publication US11325937B2, “Glycoside compound and preparation method therefor, composition, application, and intermediate” (SHANGHAI HUTCHISON PHARMACEUTICALS LIMITED, priority 2018, dated 2022).
Like-named read-outs stand apart in the source and are kept apart here.

Tested on: VEGF-A mRNA expression in macrophages (RAW264.7)
Experiment: In vitro macrophage experiment: activity of compounds to promote VEGF-A mRNA expression (RT-qPCR)
Assay type: cell-based
Conditions: Mus musculus, read-out: Expression level of VEGF-A mRNA
Excerpt: 1.1. Specific steps for activity screening: 1-10×10^6 macrophages (RAW264.7) in logarithmic growth phase were transferred to a cell culture plate. The test compounds (Compounds TG-001, TG-002, TG-003, TG-004, TG-005, TG-006, TG-007, TG-008, TG-009, TG-010, TG-011, TG-012, TG-013, TG-014, TG-015, TG-016, TG-017, TG-018, TG-019, TG-020, TG-021, TG-022, TG-023, TG-024, TG-025, TG-026, TG-027, TG-028, TG-029, TG-030, TG-031, TG-032, TG-033, TG-034, TG-035, TG-036, TG-037, TG-045, TG-039, TG-040 TG-041, TG-042, TG-043, TG-044, TG-045, TG-052, TG-053, TG-054, TG-047, TG-048, TG-046, TG-049, TG-050, TG-051, TG-055 and TG-056) were respectively diluted into various concentrations, and separately added to the cell culture plate containing macrophage. The cells were cultured for 3 h in a complete medium (RPMI 1640 medium:fetal bovine serum:tri-resistance screening agent (i.e. penicillin-streptomycin-gentamicin, Beijing Leagene Biotechnology Co., Ltd.)=89:10:1 based on volume) in a cell incubator at 37° C. and 5% CO2. The cells were lyzed by Trizol (Beijing ComWin Biotech Co., Ltd) to extract RNA, and the RNA concentration was measured using a microvolume nucleic acid and protein analyzer (Nanodrop2000c). The required volume V of RNA was calculated according to the RNA concentration, and the RNA reverse transcription reaction system was prepared according to Table 1. Then RNA reverse transcription (cDNA synthesis) (RT Easy™ I (For first-strand cDNA synthesis) Reverse Transcription Kit, Chengdu ForeGene Biotechnology Co., Ltd.) was carried out according to the conditions described in Table 2. The resulting cDNA was used to prepare a fluorescence quantitative PCR reaction solution according to Table 3. The fluorescence quantitative PCR reaction conditions were set according to Table 4, and the fluorescence quantitative PCR reaction (Real time PCR Easy™-SYBR Green Fluorescence Quantification Kit, Chengdu ForeGene Biotechnology Co., Ltd.) was performed using cDNA from the reverse transcription reaction as a template. The relative expression level 2^−ΔΔCt of the target gene was calculated from the Ct value of each sample with the blank control group as a control and β-Actin as an internal reference.
Based on the maximum level of VEGF-A mRNA expression promoted by a drug at a certain concentration, the activity of the drug was determined. The expression level of VEGF-A mRNA in macrophages was defined as 1 when no drug was added. Using a traditional Chinese medicine injection Salvianolate that is used in the treatment of Cardio-cerebrovascular disease and promotes a maximum level of VEGF-A mRNA expression of 6 in macrophages (the results are shown in Table 5) as a judgment standard, the compound promoting a maximum level of VEGF-A mRNA expression of 4 or more in macrophage was a target compound. That is, when the maximum level of VEGF-A mRNA expression in macrophages promoted by the test compound is over 4-fold higher than the expression level of VEGF-A mRNA in macrophages without the addition of the test compound, the test compound was a preliminary target compound promoting angiogenesis.

[1] = 1 μM, RAW264.7 macrophages, 3 h, relative expression 2^-ΔΔCt, no drug = 1
[2] = 0.1 mM, RAW264.7 macrophages, 3 h, relative expression, no drug = 1
[3] = 0.5 mM, RAW264.7 macrophages, 3 h, relative expression, no drug = 1
[4] = 1 mM, RAW264.7 macrophages, 3 h, relative expression, no drug = 1
[5] = 2 mM, RAW264.7 macrophages, 3 h, relative expression, no drug = 1
[6] = 3 mM, RAW264.7 macrophages, 3 h, relative expression, no drug = 1

| Structure (SMILES) | fold induction at 1 µM (RAW264.7, 3 h) | fold induction at 100 µM (RAW264.7, 3 h) | fold induction at 500 µM (RAW264.7, 3 h) | fold induction at 1000 µM (RAW264.7, 3 h) | fold induction at 2000 µM (RAW264.7, 3 h) | fold induction at 3000 µM (RAW264.7, 3 h) | fold induction at 1 µM [1] | fold induction at 100 µM [2] | fold induction at 500 µM [3] | fold induction at 1000 µM [4] | fold induction at 2000 µM [5] | fold induction at 3000 µM [6] |
| --- | --- | --- | --- | --- | --- | --- | --- | --- | --- | --- | --- | --- |
| COc1ccc(COCCO[C@@H]2O[C@H](CO)[C@@H](O)[C@H](O)[C@H]2O)cc1 [TG-032] | 2.79 | 4.89 | 0.92 | 3.68 | 1.83 | 0.96 |  |  |  |  |  |  |
| COc1ccc(CN(CCO[C@@H]2O[C@H](CO)[C@@H](O)[C@H](O)[C@H]2O)C(=O)OC(C)(C)C)cc1 [TG-033] | 0.95 | 1.87 | 38.9 | 3.76 | 0.99 | 0.04 |  |  |  |  |  |  |
| COc1ccc(CN(CCO[C@@H]2O[C@H](CO)[C@@H](O)[C@H](O)[C@H]2O)C(=O)OCc2ccccc2)cc1 [TG-034] | 1.36 | 1.32 | 4.44 | 2.93 | 7.16 | 5.43 |  |  |  |  |  |  |
| COc1ccc(N(CCCO[C@@H]2O[C@H](CO)[C@@H](O)[C@H](O)[C@H]2O)C(=O)OCc2ccccc2)cc1 [TG-035] | 1.66 | 0.44 | 1.72 | 1.06 | 0.55 | 0.2 |  |  |  |  |  |  |
| COc1ccc(CNCCO[C@@H]2O[C@H](CO)[C@@H](O)[C@H](O)[C@H]2O)cc1 [TG-036] | 1.19 | 1.39 | 0.32 | 1.09 | 0.43 | 1.75 |  |  |  |  |  |  |
| COc1ccc(NCCCO[C@@H]2O[C@H](CO)[C@@H](O)[C@H](O)[C@H]2O)cc1 [TG-037] | 1.3 | 0.62 | 1.77 | 1.69 | 1.8 | 3.23 |  |  |  |  |  |  |
| CC(C)Oc1ccc(CCCCO[C@@H]2O[C@H](CO)[C@@H](O)[C@H](O)[C@H]2O)cc1 [TG-038] |  |  |  |  |  |  | 0.79 | 1.06 | 0.96 | 1.71 | 1.32 | 1.29 |
| OC[C@H]1O[C@@H](OCCCCc2ccc(OCC3CC3)cc2)[C@H](O)[C@@H](O)[C@@H]1O [TG-039] |  |  |  |  |  |  | 1.18 | 2.67 | 9.43 | 1.7 | 0.3 | 0.18 |
| CC(C)(C)CCOc1ccc(CCCCO[C@@H]2O[C@H](CO)[C@@H](O)[C@H](O)[C@H]2O)cc1 [TG-040] |  |  |  |  |  |  | 2.09 | 3.97 | 1.46 | 0.81 | 0.22 | 0.28 |
| CC(C)(C)COc1ccc(CCCCO[C@@H]2O[C@H](CO)[C@@H](O)[C@H](O)[C@H]2O)cc1 [TG-041] |  |  |  |  |  |  | 0.62 | 0.84 | 1.97 | 8.17 | 0.16 | 0.23 |
| CC1(C)CCOc2ccc(CCCCO[C@@H]3O[C@H](CO)[C@@H](O)[C@H](O)[C@H]3O)cc21 [TG-042] |  |  |  |  |  |  | 11 | 7.25 | 9.86 | 1.11 | 0.63 | 0.84 |
| CCCCCCCCCCCCCCCCOc1ccc(CCCCO[C@@H]2O[C@H](CO)[C@@H](O)[C@H](O)[C@H]2O)cc1 [TG-043] |  |  |  |  |  |  | 1.16 | 1.52 |  | 3.36 | 4.09 | 4.29 |
| COCCOCCOCCOCCOc1ccc(CCCCO[C@@H]2O[C@H](CO)[C@@H](O)[C@H](O)[C@H]2O)cc1 [TG-044] |  |  |  |  |  |  | 0.65 | 1.18 | 1.56 | 1.04 | 0.79 | 0.95 |
| COc1ccc(CCCCO[C@@H]2O[C@H](CO)[C@@H](O[C@@H]3OC(CO)[C@H](O)[C@H](O)[C@H]3O)[C@H](O)[C@H]2O)cc1 (some centres unmarked) [TG-045] |  |  |  |  |  |  | 0.62 | 0.99 | 0.62 | 0.73 | 1.78 | 0.35 |
| COc1ccc(CCCCO[C@H]2O[C@H](CO)[C@@H](O)[C@H](O)[C@H]2O)cc1 [TG-046] |  |  |  |  |  |  | 1.86 | 1.96 | 2.14 | 2.27 | 2.25 | 5.32 |
| COc1ccc(CCS[C@@H]2O[C@H](CO)[C@@H](O)[C@H](O)[C@H]2O)cc1 [TG-047] |  |  |  |  |  |  | 2.12 | 1.93 | 2.34 | 2.84 | 2.6 | 3.45 |
| COc1ccc(CCCCS[C@@H]2O[C@H](CO)[C@@H](O)[C@H](O)[C@H]2O)cc1 [TG-048] |  |  |  |  |  |  | 1.43 | 1.26 | 4.73 | 11 | 3.81 | 2.19 |
| OC[C@H]1O[C@@H](OCCCCc2ccc(OCc3ccccc3F)cc2)[C@H](O)[C@@H](O)[C@@H]1O [TG-050] |  |  |  |  |  |  | 1.27 | 2.81 | 1.85 | 2.16 | 1.74 | 15.1 |
